The results in this text go back to patent US20230241014A1, “MEK-INHIBITORS FOR THE TREATMENT OR PREVENTION OF CORONAVIRUS INFECTIONS AND/OR COVID-19 CYTOKINE STORM” (priority 2020, published 2023).

In one assay the test system is pERK1/2. The assay can be described thus: Wes analysis of ERK phosphorylation in SARS-CoV-2 infected Caco-2 cells. Format: cell-based, Homo sapiens. The settings on record: CaCo-2 cells infected SARS-CoV-2 (MOI 0.1); 0.098-100 μM, 24 h. As to the method:
For the Virus yield reduction assay a 24-well plate (Greiner Bio-One, Cat. 662-160) with 95% confluent Caco-2 cells was prepared. The wells were washed once with Caco-2 infection medium DMEM (Gibco, Cat. 41965-039) supplemented with 5% FCS (Capricorn, Cat. FBS-12A), 1% Penicillin/Streptomycin, (Sigma Aldrich, Cat. P4333) and 1% Non-essential amino acids (NEAA) (Merck, Cat. K 0293). Cells were infected with SARS-CoV-2 (MOI 0.1) for 1 h in 200 μL Caco-2 infection medium per well. Afterwards the Virus inoculum was removed completely and cells were treated with 1 mL per well with different concentrations of ATR-002 (100 μM, 50 μM, 25 μM, 12.5 μM, 6.25 μM, 3.125 μM, 1.56 μM, 0.78 μM, 0.39 μM, 0.195 μM, 0.098 μM, 0 μM) in Caco-2 infection medium with 1% DMSO for 24 h at 37° C., 5% CO2. […]
Wes™ capillary electrophoresis by ProteinSimple® was used to identify and quantify pERK1/2, ERK1/2 and SARS-CoV-2 Nucleoprotein. Cell lysates were diluted with 0.1×Sample Buffer (ProteinSimple, Abingdon, Oxford, UK) to approximately 50 ng total protein per lane and analyzed using specific antibodies. […] The anti-rabbit secondary antibody (ProteinSimple, Cat. DM-001) and anti-mouse secondary antibody (ProteinSimple, Cat. DM-002) and all other reagents for WES analysis were also purchased from ProteinSimple and were ready to use.

The next assay deals with MCP-1. The assay can be described thus: MCP-1 in SARS-CoV-2 infected CaCo2 cells. The settings on record: high amount necessary. Format: cell-based, Homo sapiens.

In the case of `O=C(O)c1ccc(F)c(F)c1Nc1ccc(I)cc1Cl` [ATR-002, 2-(2-chloro-4-iodophenylamino)-N-3,4-difluoro benzoic acid], the “inhibition of ERK (phosphorylation)” value in the assay on pERK1/2 is “seen at concentrations of 50 and 100 μM”. In the assay on MCP-1, the MCP-1 expression entry is “able to reduce MCP-1 expression”.
